# Values of other authors as cited in patent publication US20040096453A1, “Methods and compositions to treat glycosaminoglycan-associated molecular interactions” (Neurochem (International) Limited, priority 1998, published 2004).
# System: two streptococcal proteins (9,15 Kda)
# Details: basement membranes of cardiac muscle and renal tissues; Bergey & Stenson
substance,measurement,value
heparin,inhibition of binding of streptococcal proteins to basement membranes,completely inhibited
